Patent publication US7374890B2, “Methods for identifying compounds that modulate ΔTRα2 activity” (University of Massachusetts, priority 2000, dated 2008)

What was measured:
[1] = tested on: cerebellar granule neurons; assay: release of FM1-43-loaded synaptic vesicles from cerebellar granule neurons under continuous stimulus; type: cell-based, rat; details: 10 nM hormone; continuous stimulation by 50 mM KCl; vs no hormone controls; first order kinetics assumed
Method: Granule neurons were grown for 7 days and rendered hormone free by growth in serum-free medium as detailed above. Coverslips were then placed in a perfusion chamber, mounted on the stage of a laser scanning confocal microscope and perfused at 1 ml/min at 25° C. with perfusion buffer (119 mM NaCl, 2.5 mM KCl, 2 mM CaCl2, 2 mM MgCl2, 25 mM HEPES (pH 7.4), 30 mM glucose, and […] AP-5). The effects of different hormones on synaptic vesicle trafficking were then determined. […] Depolarizing KCl was then removed from the perfusion buffer and the cells were exposed to FM1-43 for an additional 30 seconds to insure complete loading of recycling synaptic vesicles. Loaded cells were then washed free of dye and the cells were perfused for ten minutes at rest.
Images of a single field of neuronal fibers were then taken immediately before adding a second depolarizing solution (perfusion buffer containing 50 mM KCl) and at one and two minutes after beginning the continuous stimulation by 50 mM KCl. Thirty to forty-five individual FM1-43 labeled nerve terminals were identified in the baseline images (taken prior to depolarization) and the change in fluorescence (DF) for each nerve terminal determined at the one and two minute time points. FIGS. 11A and 11B show the results of analysis of the hormone specificity of synaptic vesicle trafficking (FIG. 11A) and the influence of individual myo5a mutants (FIG. 11B) on synaptic vesicle transport in granule neurons.
To evaluate the role of myo5a in synaptic vesicle transport, three different myo5a constructs were introduced into the neurons by replication-deficient adenoviral vectors (Δmyo5a^tail(MyoV^tail), Δmyo5a^c-term(MyoV^1830)and ΔMyo5a^CC(MyoV^cc) see FIG. 5) as described above. […] Neurons were infected with purified Ad5-constructs (MOI=10) 48 hours prior to the synaptic vesicle trafficking study, and allowed to recover in hormone (T4) supplemented medium. […] This modest influence of the VBD mutant on synaptic vesicle retention is likely to be due to the loss of the kinesin-binding domain that limits its delivery to nerve terminals.

[2] = biological target: ΔTRα1 (Rattus norvegicus, UniProt P63059); assay: [125I]rT3 displacement from cell-free translated ΔTRα1; type: binding; details: cell-free translated polypeptide
Excerpt: (§1) ΔTRα1 and ΔTRα2 polypeptides were synthesized by cell-free translation of appropriate segments of the rat ΔTRα1 and ΔTRα2 cDNA using the coupled transcription-translation kit from Promega® (TNT) according to the manufacturer's instructions.

[3] = biological target: T1, ΔTRα2 (T4 Inactivating Protein; TIP) (Rattus norvegicus, UniProt P63059); assay: rT3 binding displacement in nuclei-free extracts of cultured rat astrocytes; details: ΔTRα2-containing nuclei-free astrocyte extracts; rT3 as ligand; read-out: Kd, displacement of rT3
T1 construct: ΔTRα2 is encoded by exons 8-10 resulting in an approximately 25 kd protein
Method: The properties of thyroid hormone binding to non-nuclear components of the cell were examined using ΔTRα2 (T4 Inactivating Protein; TIP)-containing, nuclei-free extracts of cultured rat astrocytes. […] Both rT3 and T4 specifically displace rT3 with Kd's of approximately 0.3-0.5 nM.

[4] = tested on: D2 activity; details: in astrocytes; cited from earlier work
[5] = biological target: T2, ΔTRα2 (Rattus norvegicus, UniProt P63059); assay: [125I]rT3 displacement from cell-free translated ΔTRα2; type: binding; details: cell-free translated polypeptide
T2 sequence (P63059 256-492): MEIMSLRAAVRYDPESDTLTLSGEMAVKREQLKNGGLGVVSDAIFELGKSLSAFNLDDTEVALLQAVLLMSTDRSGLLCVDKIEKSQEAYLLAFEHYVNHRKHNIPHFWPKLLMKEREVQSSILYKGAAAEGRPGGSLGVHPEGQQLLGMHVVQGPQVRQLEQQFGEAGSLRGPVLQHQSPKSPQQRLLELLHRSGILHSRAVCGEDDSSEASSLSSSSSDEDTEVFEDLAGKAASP
Excerpt: as §1

T1 sequence (P63059 whole entry, stated change not applied): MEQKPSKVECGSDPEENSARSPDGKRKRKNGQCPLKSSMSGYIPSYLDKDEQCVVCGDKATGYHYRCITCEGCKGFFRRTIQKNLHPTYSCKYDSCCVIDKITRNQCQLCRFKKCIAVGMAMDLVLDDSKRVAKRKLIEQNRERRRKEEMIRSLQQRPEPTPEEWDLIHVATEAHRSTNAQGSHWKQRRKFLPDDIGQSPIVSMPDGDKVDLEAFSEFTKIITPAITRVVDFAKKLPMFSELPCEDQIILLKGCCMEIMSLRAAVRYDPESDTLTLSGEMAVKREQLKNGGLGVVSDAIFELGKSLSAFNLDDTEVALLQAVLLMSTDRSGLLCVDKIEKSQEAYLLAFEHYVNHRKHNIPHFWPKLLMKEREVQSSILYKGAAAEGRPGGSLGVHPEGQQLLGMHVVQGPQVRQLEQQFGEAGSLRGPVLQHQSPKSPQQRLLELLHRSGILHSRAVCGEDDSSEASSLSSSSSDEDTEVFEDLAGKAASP

With `N[C@@H](Cc1cc(I)c(Oc2cc(I)c(O)c(I)c2)c(I)c1)C(=O)O` [T4, thyroxine] the “decrease of the rate of FM1-43 release” value [1] was 75%, the Kd [2] was 0.3 to 1 nM and the Kd [3] was 0.3 to 0.5 nM. The “quantity of D2 activity” value [4] was “decreases the quantity of D2 activity” and the Kd [5] was 0.3 to 1 nM.
